Experimental findings from ChEMBL document CHEMBL4699602, “Stapled and Xenopus Glucagon-Like Peptide 1 (GLP-1)-Based Dual GLP-1/Gastrin Receptor Agonists with Improved Metabolic Benefits in Rodent Models of Obesity and Diabetes” (J Med Chem, 2020) are described below.

Where a SMILES comes first, the peptide text is derived from it. [ ]: non-standard residue; d: D form. ξ: configuration not given here. αMeH = C[C@](N)(Cc1c[nH]cn1)C(=O)O; Thr(3ξ) = CC(O)[C@H](N)C(=O)O; Aib = CC(C)(N)C(=O)O

One test deals with T1, Glucagon-like peptide 1 receptor (Homo sapiens, UniProt P43220). Put plainly: Agonist activity at human GLP-1R expressed in HEK293 cells assessed as stimulation of cAMP accumulation incubated for 20 mins in presence of 0% HSA. Format: functional, cell-based. Background: Changes in cAMP serve as a functional read-out for many G protein-coupled receptors.
T1 sequence (P43220 whole entry): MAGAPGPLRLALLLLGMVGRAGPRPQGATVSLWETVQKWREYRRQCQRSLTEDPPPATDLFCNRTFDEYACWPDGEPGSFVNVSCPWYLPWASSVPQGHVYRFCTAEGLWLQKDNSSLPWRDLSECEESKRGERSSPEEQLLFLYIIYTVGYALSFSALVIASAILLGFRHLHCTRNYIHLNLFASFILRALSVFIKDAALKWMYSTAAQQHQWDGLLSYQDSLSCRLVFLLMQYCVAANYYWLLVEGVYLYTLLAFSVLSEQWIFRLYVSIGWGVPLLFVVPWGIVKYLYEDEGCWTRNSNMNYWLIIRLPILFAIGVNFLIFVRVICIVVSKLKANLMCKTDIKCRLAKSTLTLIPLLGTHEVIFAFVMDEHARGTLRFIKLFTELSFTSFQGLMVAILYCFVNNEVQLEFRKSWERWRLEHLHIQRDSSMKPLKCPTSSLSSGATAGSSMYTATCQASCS
Turning to `CC[C@H](C)[C@H](NC(=O)[C@H](CC(C)C)NC(=O)[C@H](Cc1c[nH]c2ccccc12)NC(=O)[C@H](CCC(=O)O)NC(=O)[C@@H](NC(=O)[C@H](Cc1ccccc1)NC(=O)[C@@H]1CSC2CC(=O)N(CCC(=O)NC(C(=O)NCCCCCCNC(=O)COCCOCCNC(=O)CCC(NC(=O)CCCCCCCCCCCCCCCCC(=O)O)C(=O)O)CCCCNC(=O)CCN3C(=O)CC(SC[C@H](NC(=O)[C@H](Cc4ccc(O)cc4)NC(=O)[C@H](CCC(=O)O)NC(=O)[C@@H](NC(=O)[C@@H](NC(=O)[C@H](CC(=O)O)NC(=O)[C@H](CC(N)=O)NC(=O)[C@@H](NC(=O)[C@H](Cc4ccc(O)cc4)NC(=O)[C@@H](NC(=O)CNC(=O)[C@H](CCC(=O)O)NC(=O)C(C)(C)NC(=O)[C@@H](N)Cc4c[nH]cn4)[C@@H](C)O)[C@@H](C)O)C(C)C)[C@@H](C)O)C(=O)N[C@@H](CCC(=O)O)C(=O)N[C@@H](CCC(=O)O)C(=O)N[C@@H](CCC(=O)O)C(=O)N[C@@H](C)C(=O)N[C@@H](C)C(=O)N[C@@H](CCCCN)C(=O)N1)C3=O)C2=O)[C@@H](C)CC)C(=O)N[C@@H](CCCCN)C(=O)NCC(=O)N[C@@H](CCCCN)C(=O)N1CCC[C@H]1C(=O)N[C@@H](CO)C(=O)N[C@@H](CO)C(=O)NCC(=O)N[C@@H](C)C(=O)N1CCC[C@H]1C(=O)N1CCC[C@H]1C(=O)N1CCC[C@H]1C(=O)N[C@@H](CO)C(N)=O` (some centres not stated) (HELM PEPTIDE1{H.[Aib].E.G.T.Y.T.N.D.V.T.E.Y.C.E.E.E.A.A.K.C.F.I.E.W.L.I.K.G.K.P.S.S.G.A.P.P.P.S.[am]}|CHEM1{[O=C(O)CCCCCCCCCCCCCCCCC(=O)NC(CCC(=O)NCCOCCOCC(=O)NCCCCCCNC(=O)C(CCCCNC(=O)CCN1C(=O)CC([*:1])C1=O)NC(=O)CCN1C(=O)CC([*:2])C1=O)C(=O)O]}$PEPTIDE1,CHEM1,14:R3-1:R1|PEPTIDE1,CHEM1,21:R3-1:R2$$$V2.0), the EC50 stood at 100 pM.

The next test addresses T1, Glucagon-like peptide 1 receptor. Put plainly: Agonist activity at human GLP-1R expressed in HEK293 cells assessed as stimulation of cAMP accumulation incubated for 20 mins. Format: functional, cell-based.
As for “H-H[Aib]EGTYTNDVTEYLCEEAAKECIEWLIKGKPSSGAPPSKKKKKK-NH2 (cysteines drawn unpaired)”, the EC50 came to 170 pM. On to “H-H[Aib]EGTYTNDVTEYLECEAAKEFCEWLIKGKPSSGAPPSKKKKKK-NH2 (cysteines drawn unpaired)”, for which the EC50 amounted to 120 pM.

In the case of “H-H[Aib]EGTYTNDVTEYLEEEAACEFIEWLCKGKPSSGAPPSKKKKKK-NH2 (cysteines drawn unpaired)”, the EC50 was found to be 230 pM. As for “H-H[Aib]EGTYTNDVTEYLEEEAAKECIEWLIKCKPSSGAPPSKKKKKK-NH2 (cysteines drawn unpaired)”, the EC50 is 130 pM.

Turning to “H-H[Aib]EGTYTNDVTEYLEEEACKEFIEWCIKGKPSSGAPPSKKKKKK-NH2 (cysteines drawn unpaired)”, the EC50 came out at 150 pM.

Consider “H-H[Aib]EGTYTNDVTEYLEEECAKEFIECLIKGKPSSGAPPSKKKKKK-NH2 (cysteines drawn unpaired)”, for which the EC50 amounted to 100 pM.

Consider “H-H[Aib]EGTY[Thr(3ξ)]NDV[Thr(3ξ)]EYLEECAAKEFICWLIKGKPSSGAPPSKKKKKK-NH2 (cysteines drawn unpaired)”, for which the EC50 is 73 pM. On the same count and under the same terms, then “H-H[Aib]EG[Thr(3ξ)]YTNDVTEYLEEEAAKEFCEWLIKGCPSSGAPPSKKKKKK-NH2 (cysteines drawn unpaired)”, with 230 pM; and “H-[αMeH]AEGTYTNDVTCYLEEEACKEFIEWLIKGKPSSGAPPSKKKKKK-NH2 (cysteines drawn unpaired)”, with 110 pM.

The next test has the same target. Put plainly: Agonist activity at human GLP-1R expressed in HEK293 cells assessed as stimulation of cAMP accumulation incubated for 20 mins in presence of 4.4% HSA. Format: functional, cell-based.
With `CC[C@H](C)[C@H](NC(=O)[C@H](CC(C)C)NC(=O)[C@H](Cc1c[nH]c2ccccc12)NC(=O)[C@H](CCC(=O)O)NC(=O)[C@@H](NC(=O)[C@H](Cc1ccccc1)NC(=O)[C@@H]1CSC2CC(=O)N(CCC(=O)NC(C(=O)NCCCCCCNC(=O)COCCOCCNC(=O)CCC(NC(=O)CCCCCCCCCCCCCCCCC(=O)O)C(=O)O)CCCCNC(=O)CCN3C(=O)CC(SC[C@H](NC(=O)[C@H](Cc4ccc(O)cc4)NC(=O)[C@H](CCC(=O)O)NC(=O)[C@@H](NC(=O)[C@@H](NC(=O)[C@H](CC(=O)O)NC(=O)[C@H](CC(N)=O)NC(=O)[C@@H](NC(=O)[C@H](Cc4ccc(O)cc4)NC(=O)[C@@H](NC(=O)CNC(=O)[C@H](CCC(=O)O)NC(=O)C(C)(C)NC(=O)[C@@H](N)Cc4c[nH]cn4)[C@@H](C)O)[C@@H](C)O)C(C)C)[C@@H](C)O)C(=O)N[C@@H](CCC(=O)O)C(=O)N[C@@H](CCC(=O)O)C(=O)N[C@@H](CCC(=O)O)C(=O)N[C@@H](C)C(=O)N[C@@H](C)C(=O)N[C@@H](CCCCN)C(=O)N1)C3=O)C2=O)[C@@H](C)CC)C(=O)N[C@@H](CCCCN)C(=O)NCC(=O)N[C@@H](CCCCN)C(=O)N1CCC[C@H]1C(=O)N[C@@H](CO)C(=O)N[C@@H](CO)C(=O)NCC(=O)N[C@@H](C)C(=O)N1CCC[C@H]1C(=O)N1CCC[C@H]1C(=O)N1CCC[C@H]1C(=O)N[C@@H](CO)C(N)=O` (some centres not stated) (HELM PEPTIDE1{H.[Aib].E.G.T.Y.T.N.D.V.T.E.Y.C.E.E.E.A.A.K.C.F.I.E.W.L.I.K.G.K.P.S.S.G.A.P.P.P.S.[am]}|CHEM1{[O=C(O)CCCCCCCCCCCCCCCCC(=O)NC(CCC(=O)NCCOCCOCC(=O)NCCCCCCNC(=O)C(CCCCNC(=O)CCN1C(=O)CC([*:1])C1=O)NC(=O)CCN1C(=O)CC([*:2])C1=O)C(=O)O]}$PEPTIDE1,CHEM1,14:R3-1:R1|PEPTIDE1,CHEM1,21:R3-1:R2$$$V2.0), the EC50 amounted to 5900 pM.

The target is the same in a further test. Put plainly: Ratio of EC50 for agonist activity at human GLP-1R expressed in HEK293 cells in presence of 4.4% HSA to EC50 for agonist activity at human GLP-1R expressed in HEK293 cells in presence of 0% HSA. The format is cell-based.
In the case of `CC[C@H](C)[C@H](NC(=O)[C@H](CC(C)C)NC(=O)[C@H](Cc1c[nH]c2ccccc12)NC(=O)[C@H](CCC(=O)O)NC(=O)[C@@H](NC(=O)[C@H](Cc1ccccc1)NC(=O)[C@@H]1CSC2CC(=O)N(CCC(=O)NC(C(=O)NCCCCCCNC(=O)COCCOCCNC(=O)CCC(NC(=O)CCCCCCCCCCCCCCCCC(=O)O)C(=O)O)CCCCNC(=O)CCN3C(=O)CC(SC[C@H](NC(=O)[C@H](Cc4ccc(O)cc4)NC(=O)[C@H](CCC(=O)O)NC(=O)[C@@H](NC(=O)[C@@H](NC(=O)[C@H](CC(=O)O)NC(=O)[C@H](CC(N)=O)NC(=O)[C@@H](NC(=O)[C@H](Cc4ccc(O)cc4)NC(=O)[C@@H](NC(=O)CNC(=O)[C@H](CCC(=O)O)NC(=O)C(C)(C)NC(=O)[C@@H](N)Cc4c[nH]cn4)[C@@H](C)O)[C@@H](C)O)C(C)C)[C@@H](C)O)C(=O)N[C@@H](CCC(=O)O)C(=O)N[C@@H](CCC(=O)O)C(=O)N[C@@H](CCC(=O)O)C(=O)N[C@@H](C)C(=O)N[C@@H](C)C(=O)N[C@@H](CCCCN)C(=O)N1)C3=O)C2=O)[C@@H](C)CC)C(=O)N[C@@H](CCCCN)C(=O)NCC(=O)N[C@@H](CCCCN)C(=O)N1CCC[C@H]1C(=O)N[C@@H](CO)C(=O)N[C@@H](CO)C(=O)NCC(=O)N[C@@H](C)C(=O)N1CCC[C@H]1C(=O)N1CCC[C@H]1C(=O)N1CCC[C@H]1C(=O)N[C@@H](CO)C(N)=O` (some centres not stated) (HELM PEPTIDE1{H.[Aib].E.G.T.Y.T.N.D.V.T.E.Y.C.E.E.E.A.A.K.C.F.I.E.W.L.I.K.G.K.P.S.S.G.A.P.P.P.S.[am]}|CHEM1{[O=C(O)CCCCCCCCCCCCCCCCC(=O)NC(CCC(=O)NCCOCCOCC(=O)NCCCCCCNC(=O)C(CCCCNC(=O)CCN1C(=O)CC([*:1])C1=O)NC(=O)CCN1C(=O)CC([*:2])C1=O)C(=O)O]}$PEPTIDE1,CHEM1,14:R3-1:R1|PEPTIDE1,CHEM1,21:R3-1:R2$$$V2.0), the Ratio EC50 turned out to be 59.

The term EC50 denotes the concentration needed to bring the measured effect to its halfway point.
